For the assay, the system named is regenerated Aloe vera shoots. The experiment in a line: in vitro rooting of regenerated Aloe vera shoots. It is filed as cell-based, Aloe vera (Aloe barbadensis). The settings on record: MS supplemented with IAA (0.5, 1.0 or 2.0 mg/L); hormone-free media gave 100% rooting in 3 weeks. As to the method:
Regenerated shoots were rooted in both media containing indole acetic acid (0.5, 1.0, or 2.0 mg/L LAA) and MS media lacking any hormones. Shoots were more successfully rooted in the MS media lacking hormones. The culture conditions were the same as those used for initiation.

Consider indole acetic acid [IAA], for which the rooting of shoots result is given as “no rooting was observed”.

For the origin of these results see patent US7892831B2, “Method for in vitro mass culture of Aloe vera” (priority 2006, dated 2011).
